The results in this text go back to patent publication US8053581B2, “Trisubstituted thiazole compounds, preparations methods, pharmaceutical compositions and medicals uses thereof” (Institute of Pharmacology and Toxicology Academy of …, priority 2006, dated 2011).

Data set [1] deals with T1, CETP (Homo sapiens, UniProt P11597).
T1 sequence (P11597 18-493): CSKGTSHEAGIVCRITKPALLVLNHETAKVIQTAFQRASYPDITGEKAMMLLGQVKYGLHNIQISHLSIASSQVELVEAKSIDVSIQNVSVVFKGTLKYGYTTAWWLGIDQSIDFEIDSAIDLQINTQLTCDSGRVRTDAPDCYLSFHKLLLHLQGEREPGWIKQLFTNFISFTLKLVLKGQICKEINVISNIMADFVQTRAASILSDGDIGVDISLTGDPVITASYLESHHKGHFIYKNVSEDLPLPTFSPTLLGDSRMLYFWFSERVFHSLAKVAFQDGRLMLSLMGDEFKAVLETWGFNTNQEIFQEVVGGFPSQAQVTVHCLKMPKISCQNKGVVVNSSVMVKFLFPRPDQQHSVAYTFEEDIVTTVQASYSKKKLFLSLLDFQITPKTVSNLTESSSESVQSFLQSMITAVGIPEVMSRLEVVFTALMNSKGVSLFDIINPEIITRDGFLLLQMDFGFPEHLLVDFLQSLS
Kind of data set: Determination of CETP inhibition activity (fluorescent donor/acceptor transfer). Type of data set: biochemical. As to conditions: for inhibition at 500 µM: Concentration of compounds 500 μM, read-out: CETP inhibition activity Inhibition rate(%). The protocol:
A mixture containing 3 μl of a donor, 9 μl of an acceptor (250 μg protein), 3 μl of CETP solution and 85 μl of an analytic buffer, 10 mM Tris, 0.15 M NaCl and 2 mM EDTA, pH 7.4 was incubated at 37° C. for 0.5 hours, the fluorescence intensity was determined on Victor 3 double illuminometer/fluorescence counter (Perkin Elmer) carrying […] light wave length.

Data set [2] has as its target T2, PLTP (Homo sapiens, UniProt P55058).
T2 construct: from tissue
The data set is described as follows: Determination of PLTP inhibition activity (radiolabelled phospholipid liposome to HDL transfer with plasma). Type of data set: biochemical. As to conditions: for inhibition at 250 µM: Concentration of compounds 250 μM; for inhibition at 250 µM / inhibition at 150 µM / inhibition at 500 µM: read-out: PLTP inhibition activity Inhibition rate(%); for inhibition at 150 µM: Concentration of compounds 150 μM; for inhibition at 500 µM: Concentration of compounds 500 μM. The protocol:
30 μl (about 1000 cpm/μl) phospholipids liposome, 30 μl HDL ([…]), 337 μl TSE and 3 μl plasma were mixed, incubated in 37° C. water-bath for 1 hour, and then added 300 μl of a settling solution (50 ml solution preparation: 5.36 ml 5N NaCl, 9.075 ml 2M MnCl2 and 46 mg liver phospholipid were mixed, added water to 50 ml), the solution was stood at room temperature for 10 minutes, rotated at high speed for 10 minutes (to remove phospholipids liposome), 500 μl of the supernatant was sampled and counted. PLTP activity (cpm/h/3 μl)=sample cpm-background cpm.

T2 sequence (P55058 18-493, species assumed): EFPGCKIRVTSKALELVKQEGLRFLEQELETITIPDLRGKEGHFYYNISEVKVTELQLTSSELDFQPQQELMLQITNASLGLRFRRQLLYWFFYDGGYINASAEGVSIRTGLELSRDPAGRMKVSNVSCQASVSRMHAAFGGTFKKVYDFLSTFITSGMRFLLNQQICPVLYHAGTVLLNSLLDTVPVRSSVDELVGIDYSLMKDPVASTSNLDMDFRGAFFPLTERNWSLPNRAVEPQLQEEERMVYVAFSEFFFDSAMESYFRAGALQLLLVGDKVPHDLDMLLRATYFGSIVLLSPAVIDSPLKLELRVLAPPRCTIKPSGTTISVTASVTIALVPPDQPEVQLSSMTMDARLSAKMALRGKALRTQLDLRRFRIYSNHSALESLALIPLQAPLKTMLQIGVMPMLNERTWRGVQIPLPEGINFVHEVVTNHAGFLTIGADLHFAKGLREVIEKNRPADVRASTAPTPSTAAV

`O=C(Nc1nc(-c2ccccc2)c(Cc2ccc([N+](=O)[O-])cc2)s1)c1ccc(O)c(O)c1` [Example 32, 3,4-dihydroxy-N-[5-(4-nitro-benzyl)-4-phenyl-thiazol-2-yl]-benzamide]: the inhibition at 500 µM in data set [1] turned out to be 0%. In addition, in data set [2], half-maximal inhibition (IC50) was put at 75 µM and the inhibition at 250 µM was found to be 100%.

Take `O=C(Nc1nc(-c2ccc(O)cc2)c(Cc2ccccc2)s1)c1ccc(Cl)cc1` [Example 8, N-[5-benzyl-4-(4-hydroxy-phenyl)-thiazol-2-yl]-4-chloro-benzamide]: the melting point was 109 to 110 °C. The inhibition at 500 µM in data set [1] turned out to be 80.4%. The inhibition at 150 µM in data set [2] is 0%.

On to `COc1ccc(-c2nc(N)sc2CC2CCCCC2)cc1` [Example 47, 5-cyclohexylmethyl-4-(4-methoxy-phenyl)-thiazol-2-ylamine], for which the melting point is 118 to 119 °C. Besides, the inhibition at 500 µM in data set [1] stood at 79.8%. For the same compound, the inhibition at 150 µM in data set [2] is 0%.

The compound `COc1ccc(-c2nc(N)sc2Cc2ccc(F)cc2)cc1` [Example 21, 5-(4-fluoro-benzyl)-4-(4-methoxy-phenyl)-thiazol-2-ylamine] had a melting point of 199 to 201 °C. Further, the inhibition at 500 µM in data set [1] was 52.8%. Also, the inhibition at 250 µM in data set [2] was determined as 11.5%.

`COc1ccc(-c2nc(N3CCOCC3)sc2Cc2ccccc2)cc1` [Example 70, 4-[5-benzyl-4-(4-methoxy-phenyl)-thiazol-2-yl]-morpholine] had a melting point of 88 to 89 °C. Moreover, in data set [1], the concentration for half-maximal inhibition (IC50) was determined as 75 µM and the inhibition at 500 µM came to 91.6%. In addition, the inhibition at 500 µM in data set [2] was 61%.

As to `O=C(Nc1nc(-c2ccc(O)cc2)c(Cc2ccccc2)s1)c1ccc(O)c(O)c1` [Example 19, N-[5-benzyl-4-(4-hydroxy-phenyl)-thiazol-2-yl]-3,4-dihydroxy-benzamide], the melting point was 240 to 241 °C. In addition, the inhibition at 500 µM in data set [1] came to 19.4%. In data set [2], 70 µM corresponded to half-maximal inhibition (IC50) and the inhibition at 250 µM is 79.8%.

`COc1ccc(C(=O)Nc2nc(-c3ccc(O)cc3)c(Cc3ccccc3)s2)cc1` [Example 40, N-[5-benzyl-4-(4-hydroxy-phenyl)-thiazol-2-yl]-4-methoxy-benzamide] showed a melting point of 124 to 125 °C. Besides, in data set [1], the inhibition at 500 µM worked out at 71.6%. In addition, the inhibition at 150 µM in data set [2] turned out to be 0%.

Consider `CCCCc1sc(NC(=O)c2ccc(O)c(O)c2)nc1-c1ccc(O)cc1` [Example 65, N-[5-n-butyl-4-(4-hydroxy-phenyl)-thiazol-2-yl]-3,4-dihydroxy-benzamide], for which the melting point is 189 to 190 °C. In data set [1], the inhibition at 500 µM was determined as 0%. In data set [2], the IC50 worked out at 75 µM and the inhibition at 250 µM was 93.4%.

As to `O=C(Nc1nc(-c2ccc(O)cc2)c(CC2CCCCC2)s1)c1cc(O)c(O)c(O)c1` [Example 51, N-[5-cyclohexylmethyl-4-(4-hydroxy-phenyl)-thiazol-2-yl]-3,4,5-trihydroxy-benzamide], the melting point fell in the range of 238 to 239 °C. The inhibition at 500 µM in data set [1] was found to be 20.9%. For the same compound, in data set [2], it took 18 µM to reach half-maximal inhibition (IC50) and the inhibition at 250 µM was 100%.

`Cc1sc(NC(=O)c2cc(O)c(O)c(O)c2)nc1-c1ccc(O)cc1` [Example 55, 3,4,5-trihydroxy-N-[4-(4-hydroxy-phenyl)-5-methyl-thiazol-2-yl]-benzamide] displayed a melting point of 262 to 263 °C. Besides, the inhibition at 500 µM in data set [1] is 85.9%. The inhibition at 250 µM in data set [2] was determined as 10.7%.

Turning to `COc1ccc(-c2nc(N3CCNCC3)sc2Cc2ccccc2)cc1.Cl.Cl.Cl` [Example 72, 1-[5-benzyl-4-(4-methoxy-phenyl)-thiazol-2-yl]-piperazine trihydrochloride], the melting point fell in the range of 111 to 112 °C. Also, the inhibition at 500 µM in data set [1] was found to be 74.5%. Moreover, the inhibition at 500 µM in data set [2] came out at 100%.

`O=C(Nc1nc(-c2ccc(O)cc2)c(Cc2ccccc2)s1)c1ccc(O)cc1O` [Example 38, N-[5-benzyl-4-(4-hydroxy-phenyl)-thiazol-2-yl]-2,4-dihydroxy-benzamide] displayed a melting point of 217 to 219 °C. Also, the inhibition at 500 µM in data set [1] came to 88%. Besides, the inhibition at 150 µM in data set [2] was 11.5%.

`COc1ccc(-c2nc(N)sc2CCc2ccccc2)cc1` [Example 57, 4-(4-methoxy-phenyl)-5-phenylethyl-thiazol-2-ylamine] returned a melting point of 143 to 144 °C. Also, in data set [1], the inhibition at 500 µM came to 75.8%. For the same compound, the inhibition at 250 µM in data set [2] was 24%.

`O=C(CCc1ccc(O)c(O)c1)Nc1nc(-c2ccc(O)cc2)c(Cc2ccccc2)s1` [Example 69, N-[5-benzyl-4-(4-hydroxy-phenyl)-thiazol-2-yl]-3-(3,4-dihydroxy-phenyl)-propanamide]: the melting point lay within 94 to 95 °C. Also, the inhibition at 500 µM in data set [1] came to 25.3%. Besides, in data set [2], the midpoint of inhibition, the IC50, lay at 75 µM and the inhibition at 150 µM was 75.7%.

On to `O=C(Nc1nc(-c2ccc(O)cc2)c(CCc2ccccc2)s1)c1ccc(O)c(O)c1` [Example 60, 3,4-dihydroxy-N-[4-(4-hydroxy-phenyl)-5-phenylethyl-thiazol-2-yl]-benzamide], for which the melting point was 208 to 209 °C. In addition, the inhibition at 500 µM in data set [1] stood at 0%. In data set [2], the IC50 amounted to 35 µM and the inhibition at 250 µM was 97%.

In the case of `Cc1sc(NC(=O)c2ccc(O)c(O)c2)nc1-c1ccc(O)cc1` [Example 56, 3,4-dihydroxy-N-[4-(4-hydroxy-phenyl)-5-methyl-thiazol-2-yl]-benzamide], the inhibition at 500 µM in data set [1] is 58.7%. Besides, in data set [2], half-maximal inhibition (IC50) was put at 75 µM and the inhibition at 250 µM was 71.9%.

`COc1ccc(-c2nc(N(CCO)CCO)sc2Cc2ccccc2)cc1` [Example 73, 2-[[5-benzyl-4-(4-methoxy-phenyl)-thiazol-2-yl]-(2-hydroxy-ethyl)-amino]-ethanol]: the melting point is 119 to 120 °C.

As for `COc1ccc(C(=O)Nc2nc(-c3ccccc3)c(Cc3ccc([N+](=O)[O-])cc3)s2)cc1OC` [Example 29, 3,4-dimethoxy-N-[5-(4-nitro-benzyl)-4-phenyl-thiazol-2-yl]-benzamide], the melting point lay within 105 to 106 °C.

`COc1ccc(-c2nc(NC(=O)c3cc(OC)c(OC)c(OC)c3)sc2Cc2ccccc2)cc1` [Example 37, N-[5-benzyl-4-(4-methoxy-phenyl)-thiazol-2-yl]-3,4,5-trimethoxy-benzamide] showed a melting point of 157 to 158 °C.

Turning to `COc1ccc(-c2nc(NC(=O)c3ccc(OC)c(OC)c3)sc2Cc2ccc(F)cc2)cc1` [Example 30, N-[5-(4-fluoro-benzyl)-4-(4-methoxy-phenyl)-thiazol-2-yl]-3,4-dimethoxy-benzamide], the melting point fell in the range of 140 to 142 °C.

On to `COc1ccc(-c2nc(NC(=O)c3ccc(OC)cc3OC)sc2Cc2ccccc2)cc1` [Example 35, N-[5-benzyl-4-(4-methoxy-phenyl)-thiazol-2-yl]-2,4-dimethoxy-benzamide], for which the melting point was 196 to 197 °C.

Compound `COc1ccc(-c2nc(NC(=O)c3cc(F)cc(F)c3)sc2Cc2ccc([N+](=O)[O-])cc2)cc1` [Example 17, 3,5-difluoro-N-[4-(4-methoxy-phenyl)-5-(4-nitro-benzyl)-thiazol-2-yl]-benzamide] had a melting point of 189 to 190 °C.

As for `COc1ccc(-c2nc(NC(=O)c3ccc(C#N)cc3)sc2Cc2ccccc2)cc1` [Example 13, N-[5-benzyl-4-(4-methoxy-phenyl)-thiazol-2-yl]-4-cyano-benzamide], the melting point fell in the range of 194 to 196 °C.

In turn, `COc1ccc(-c2nc(NC(=O)c3ccc(OC)c(OC)c3)sc2Cc2ccc([N+](=O)[O-])cc2)cc1` [Example 28, 3,4-dimethoxy-N-[4-(4-methoxy-phenyl)-5-(4-nitro-benzyl)-thiazol-2-yl]-benzamide] came in with a melting point of 106 to 108 °C.

`COc1ccc(-c2nc(NC(=O)c3ccc(OC)c(OC)c3)sc2Cc2ccccc2)cc1` [Example 12, N-[5-benzyl-4-(4-methoxy-phenyl)-thiazol-2-yl]-3,4-dimethoxy-benzamide] displayed a melting point of 179 to 180 °C.

On to `Oc1ccc(-c2nc(N3CCNCC3)sc2Cc2ccccc2)cc1` [Example 75, 4-(5-benzyl-2-piperazin-4-yl-thiazol-4-yl)-phenol], for which the melting point was in the range of 222 to 223 °C.

The term inhibition denotes how much of the control response was suppressed. As a reminder, the IC50 is the concentration that inhibits the measured activity by half. Usually melting point stands for the temperature, or range, at which the solid turns liquid.
